{"source": "patent US7186824B2", "about": "“Reduction inhibitory agent for active-oxygen eliminating activity” (Kabushiki Kaisha Hayashibara Seibutsu Kagaku Kenkyujo, priority 1997, dated 2007)", "type_in_all_cases": "biochemical", "key": {"[1]": {"assay": "Active-oxygen eliminating activity of superoxide dismutase and antioxidants in water or trehalose solution before/after storage (NBT test)", "details": "for Activity (unit/mg antioxidant) Before storage: in trehalose solution, trehalose concentration 45%; for Activity (unit/mg antioxidant) After storage: light-shielded", "protocol": "(§1) Fresh raw carrots were disrupted by a mixer, and 10% of either of saccharides, d.s.b., was added to the mixture and dissolved therein. The solution was dried under reduced pressures at 40° C. for two days, dried in vacuo at the same temperature for 24 hours, and pulverized by a mixer into a powdery carrot composition. The saccharides used were commercialized reagents of glucose, mannitol, sorbitol, maltose, sucrose, trehalose, and pullulan. An about 100 g of the composition was placed and sealed in a 500-ml polystyrene container, and stored at 40° C. for seven days. The active-oxygen eliminating activity of the composition before and after the storage were compared. The assay for the active-oxygen eliminating activity followed the nitroblue tetrazolium test by Toshio IMANARI et at in Igakuno Ayumi, Vol. 101, pp. 496–497 (1977); the level of superoxide, formed in a xanthine-xanthine oxidase system, was assayed by quantifying calorimetrically the content of formazan formed by reducing NBT. As a control, refined water was used as a test solution. One unit activity of active-oxygen eliminating activity is defined as that inhibits 50% formazan formation as compared with the control. […] The reduction inhibitory activity of trehalose was strongly higher than that of glucose as the constituent saccharide for trehalose, and that of maltose as a disaccharide consisting of two glucose units similar to trehalose. Thus trehalose is suitably used as an effective ingredient for a reduction inhibitory agent for active-oxygen eliminating activity.\nIn one milliliter of a 45 w/v % trehalose solution was dissolved five micrograms of superoxide dismutase from a horseradish-commercialized by Sigma Chemical Co., St. Louise, USA, 10 mg α-glucosyl hesperidin commercialized by Hayashibara Biochemical Laboratories, Inc., Okayama, Japan, 10 mg α-glucosyl rutin commercialized by Hayashibara Biochemical Laboratories, Inc., Okayama, Japan, 250 μg gallic acid commercialized by Wako Pure Chemical Industries, Ltd., Tokyo, Japan, or 50 μg catechin to obtain a liquid composition. Each of the compositions was placed in a glass test tube, sealed with a rubber cap, and stored under light-shielded conditions. As a control, water was used in place of the trehalose solution. […] Mere mixing of a powdery crystalline trehalose hydrate and either of the powdery antioxidants into a powdery mixture, almost no change of the active-oxygen eliminating activity was observed when subjected to storage test similarly as above."}, "[2]": {"assay": "Influence of trehalose concentration on active-oxygen eliminating activity of powdery carrot composition before/after storage (NBT test)", "details": "for Activity (unit/g) After storage / Percentage of residual activity (%): 40° C. for seven days; for Activity (unit/g) Before storage: powdery carrot composition", "protocol": "as §1\nSimilarly as in Experiment 1, 0–20% of trehalose, d.s.b., was mixed with and dissolved in a disrupted carrot. The resulting each mixture was dried in vacuo at 40° C. for 24 hours, and pulverized into a powdery carrot composition. Similarly as in Experiment 1, each powdery composition was placed and sealed in a polystyrene container, and stored at 40° C. for seven days for evaluating the reduction inhibitory activity for active-oxygen eliminating activity. […] Based on the data from Table 2, at least of about one percent, preferably, at least of about five percent, and more preferably, at least of about 20% of trehalose, d.s.b., exerted a desired effective reducing inhibitory activity for active-oxygen eliminating activity."}, "[3]": {"assay": "Influence of saccharides on active-oxygen eliminating activity of powdery carrot composition before/after storage (NBT test)", "details": "compared among the saccharides tested, 40° C. seven days", "protocol": "Fresh raw carrots were disrupted by a mixer, and 10% of either of saccharides, d.s.b., was added to the mixture and dissolved therein. The solution was dried under reduced pressures at 40° C. for two days, dried in vacuo at the same temperature for 24 hours, and pulverized by a mixer into a powdery carrot composition. The saccharides used were commercialized reagents of glucose, mannitol, sorbitol, maltose, sucrose, trehalose, and pullulan. An about 100 g of the composition was placed and sealed in a 500-ml polystyrene container, and stored at 40° C. for seven days. The active-oxygen eliminating activity of the composition before and after the storage were compared. The assay for the active-oxygen eliminating activity followed the nitroblue tetrazolium test by Toshio IMANARI et at in Igakuno Ayumi, Vol. 101, pp. 496–497 (1977); the level of superoxide, formed in a xanthine-xanthine oxidase system, was assayed by quantifying calorimetrically the content of formazan formed by reducing NBT. As a control, refined water was used as a test solution. One unit activity of active-oxygen eliminating activity is defined as that inhibits 50% formazan formation as compared with the control. […]"}, "[4]": {"details": "trehalose 0%, stored 80° C. 5 days"}, "[5]": {"details": "trehalose 45%, stored 80° C. 5 days"}, "[6]": {"details": "0.1% trehalose added to carrot (content 1.0% d.s.b.)"}, "[7]": {"details": "0.5% trehalose added to carrot (content 4.9% d.s.b.)"}, "[8]": {"details": "1.0% trehalose added to carrot (content 9.4% d.s.b.)"}, "[9]": {"details": "2.5% trehalose added to carrot (content 20.7% d.s.b.)"}, "[10]": {"details": "5.0% trehalose added to carrot (content 34.2% d.s.b.)"}, "[11]": {"details": "10.0% trehalose added to carrot (content 51.1% d.s.b.)"}, "[12]": {"details": "20.0% trehalose added to carrot (content 67.6% d.s.b.)"}, "[13]": {"details": "trehalose 45%, stored 25° C. 20 hours"}}}
{"molecule": "O=C(O)c1cc(O)c(O)c(O)c1", "note": "[Gallic acid, gallic acid]", "values": [{"measurement": "Activity (unit/mg antioxidant) Before storage", "setting": "[1]", "value": 570, "unit": "unit/mg antioxidant"}, {"measurement": "Activity (unit/mg antioxidant) After storage", "setting": "[1]; [4]", "value": 390, "unit": "unit/mg antioxidant"}, {"measurement": "Residual activity (%)", "setting": "[1]; [5]", "value": 82, "unit": "%"}, {"measurement": "Activity (unit/mg antioxidant) After storage", "setting": "[1]; [5]", "value": 470, "unit": "unit/mg antioxidant"}]}
{"molecule": "OC[C@H]1O[C@H](O[C@H]2O[C@H](CO)[C@@H](O)[C@H](O)[C@H]2O)[C@H](O)[C@@H](O)[C@@H]1O", "note": "[Trehalose, α,α-trehalose]", "values": [{"measurement": "Activity (unit/g) After storage", "setting": "[2]; [6]", "value": 400, "unit": "unit/g"}, {"measurement": "Percentage of residual activity (%)", "setting": "[2]; [6]", "value": 43, "unit": "%"}, {"measurement": "Activity (unit/g) After storage", "setting": "[2]; [7]", "value": 460, "unit": "unit/g"}, {"measurement": "Percentage of residual activity (%)", "setting": "[2]; [7]", "value": 61, "unit": "%"}, {"measurement": "Activity (unit/g) After storage", "setting": "[2]; [8]", "value": 480, "unit": "unit/g"}, {"measurement": "Percentage of residual activity (%)", "setting": "[2]; [8]", "value": 56, "unit": "%"}, {"measurement": "Activity (unit/g) After storage", "setting": "[2]; [9]", "value": 460, "unit": "unit/g"}, {"measurement": "Activity (unit/g) After storage", "setting": "[2]; [10]", "value": 370, "unit": "unit/g"}, {"measurement": "Percentage of residual activity (%)", "setting": "[2]; [10]", "value": 62, "unit": "%"}, {"measurement": "Activity (unit/g) After storage", "setting": "[2]; [11]", "value": 330, "unit": "unit/g"}, {"measurement": "Percentage of residual activity (%)", "setting": "[2]; [11]", "value": 83, "unit": "%"}, {"measurement": "Activity (unit/g) After storage", "setting": "[2]; [12]", "value": 240, "unit": "unit/g"}, {"measurement": "Percentage of residual activity (%)", "setting": "[2]; [12]", "value": 63, "unit": "%"}, {"measurement": "Activity (unit/g) Before storage", "setting": "[2]; [6]", "value": 930, "unit": "unit/g"}, {"measurement": "Activity (unit/g) Before storage", "setting": "[2]; [7]", "value": 750, "unit": "unit/g"}, {"measurement": "Activity (unit/g) Before storage", "setting": "[2]; [8]", "value": 860, "unit": "unit/g"}, {"measurement": "Activity (unit/g) Before storage", "setting": "[2]; [9]", "value": 700, "unit": "unit/g"}, {"measurement": "Activity (unit/g) Before storage", "setting": "[2]; [10]", "value": 600, "unit": "unit/g"}, {"measurement": "Activity (unit/g) Before storage", "setting": "[2]; [11]", "value": 400, "unit": "unit/g"}, {"measurement": "Activity (unit/g) Before storage", "setting": "[2]; [12]", "value": 380, "unit": "unit/g"}, {"measurement": "reduction inhibitory activity for active-oxygen eliminating activity (in words)", "setting": "[3]", "value": "strong effect"}]}
{"molecule": "Superoxide dismutase", "values": [{"measurement": "Activity (unit/mg antioxidant) Before storage", "setting": "[1]", "value": "11,000 unit/mg antioxidant"}, {"measurement": "Activity (unit/mg antioxidant) After storage", "setting": "[1]; trehalose 0%, stored 60° C. 17 hours", "value": "4,600 unit/mg antioxidant"}, {"measurement": "Activity (unit/mg antioxidant) After storage", "setting": "[1]; trehalose 45%, stored 60° C. 17 hours", "value": "9,400 unit/mg antioxidant"}]}
{"molecule": "catechin", "values": [{"measurement": "Activity (unit/mg antioxidant) Before storage", "setting": "[1]", "value": 380, "unit": "unit/mg antioxidant"}, {"measurement": "Activity (unit/mg antioxidant) After storage", "setting": "[1]; trehalose 0%, stored 25° C. 20 hours", "value": 2.2, "unit": "unit/mg antioxidant"}, {"measurement": "Residual activity (%)", "setting": "[1]; [13]", "value": 82, "unit": "%"}, {"measurement": "Activity (unit/mg antioxidant) After storage", "setting": "[1]; [13]", "value": 310, "unit": "unit/mg antioxidant"}]}
{"molecule": "α-glucosyl hesperidin", "values": [{"measurement": "Activity (unit/mg antioxidant) Before storage", "setting": "[1]", "value": 3.6, "unit": "unit/mg antioxidant"}, {"measurement": "Activity (unit/mg antioxidant) After storage", "setting": "[1]; [4]", "value": 1.0, "unit": "unit/mg antioxidant"}, {"measurement": "Residual activity (%)", "setting": "[1]; [5]", "value": 67, "unit": "%"}, {"measurement": "Activity (unit/mg antioxidant) After storage", "setting": "[1]; [5]", "value": 2.4, "unit": "unit/mg antioxidant"}]}
{"molecule": "α-glucosyl rutin", "values": [{"measurement": "Activity (unit/mg antioxidant) After storage", "setting": "[1]; [4]", "value": 18, "unit": "unit/mg antioxidant"}, {"measurement": "Activity (unit/mg antioxidant) After storage", "setting": "[1]; [5]", "value": 22, "unit": "unit/mg antioxidant"}]}
